Patent US20190336610A1, “GLUCOSE-SENSITIVE PEPTIDE HORMONES” (GUBRA APS, priority 2016, published 2019)

Experiments:
[1] = In vitro glucose sensing at different glucose concentration (UPLC-MS, formation of linker-glucose); assay type: physicochemical; conditions: 0.42 mM linker, PBS pH 7.4, 37° C.
Experimental: The aim with the example is to evaluate the reaction rate of three different linkers at various glucose concentrations i.e. their ability to hydrolyse and react with glucose to form a linker glucose conjugate.
1.4 mg of linker 1 ((E)-N′-(3-(benzyloxy)propylidene)-4-methoxybenzohydrazide) was dissolved in 100 μL DMSO. 10 μL of the DMSO stock solution was added to 990 μL 1×PBS buffer pH 7.4, containing 1000 or 5000 equiv glucose, to give a final concentration of 0.42 mM of linker 1. The solutions were heated to 37° C. and analysed at different time points from 0 to 48 h by UPLC-MS (C18 column, acetonitrile/water/formic acid). The linker-glucose compound was analysed as percentage of the full conversion of the reaction.
1.3 mg and 1.4 mg of linker 14 ((E)-N′-(2-(benzyloxy)ethylidene)-4-methoxybenzohydrazide) and linker 15 ((E)-N′-(2-(benzyloxy)ethylidene)-2-hydroxy-4-methoxybenzohydrazide), respectively, was dissolved in 100 μL DMSO. 10 μL of each stock solution was added to 990 μL 1×PBS buffer pH 7.4 containing 1000, 5000 or 10,000 equiv glucose, to give a final linker concentration of 0.42 mM. The solutions were heated to 37° C. and analysed at different time points from 0 to 72 h by UPLC-MS (C18 column, acetonitrile/water/formic acid). The linker-glucose compounds were analysed as percentage of the full conversion of the reaction.

[2] = In vitro glucose sensing evaluation (LC-MS): reactivity of each linker towards glucose; assay type: physicochemical; conditions: phosphate buffer pH 7, 1000 equiv glucose, 37° C.
Experimental: The aim with this example is to evaluate the reactivity of each linker towards glucose.
1-1.5 mg of linker was dissolved in 100 μL DMSO. Immediately after solvation, 5 μL was added to 995 μL phosphate buffer pH 7 containing 1000 equiv glucose. The mixture was heated to 37° C. and analysed continuously by LC-MS

lean rats = test: In vivo scITT in lean rats; conditions: s.c., 5 U insulin-C18 or 0.5 U human insulin

Compound: COc1ccc(C(=O)N/N=C/CCOCc2ccccc2)cc1 [Linker 1, (E)-N′-(3-(benzyloxy)propylidene)-4-methoxybenzohydrazide]
- % linker-glucose ([1]; 1000 equiv glucose, 0 h): 0%
- % linker-glucose ([1]; 1000 equiv glucose, 1.5 h): 3%
- % linker-glucose ([1]; 1000 equiv glucose, 2 h): 3%
- % linker-glucose ([1]; 1000 equiv glucose, 3 h): 5%
- % linker-glucose ([1]; 1000 equiv glucose, 3.17 h): 4%
- % linker-glucose ([1]; 1000 equiv glucose, 3.5 h): 4%
- % linker-glucose ([1]; 1000 equiv glucose, 3.75 h): 4%
- % linker-glucose ([1]; 1000 equiv glucose, 4 h): 5%
- % linker-glucose ([1]; 1000 equiv glucose, 4.5 h): 6%
- % linker-glucose ([1]; 1000 equiv glucose, 4.75 h): 6%
- % linker-glucose ([1]; 1000 equiv glucose, 5 h): 6%
- % linker-glucose ([1]; 1000 equiv glucose, 5.5 h): 6%
- % linker-glucose ([1]; 1000 equiv glucose, 6 h): 9%
- % linker-glucose ([1]; 1000 equiv glucose, 7 h): 9%
- % linker-glucose ([1]; 1000 equiv glucose, 24 h): 29%
- % linker-glucose ([1]; 1000 equiv glucose, 48 h): 70%
- % linker-glucose ([1]; 5000 equiv glucose, 0 h): 0%
- % linker-glucose ([1]; 5000 equiv glucose, 0.75 h): 3%
- % linker-glucose ([1]; 5000 equiv glucose, 1 h): 6%
- % linker-glucose ([1]; 5000 equiv glucose, 1.25 h): 7%
- % linker-glucose ([1]; 5000 equiv glucose, 1.5 h): 10%
- % linker-glucose ([1]; 5000 equiv glucose, 1.75 h): 10%
- % linker-glucose ([1]; 5000 equiv glucose, 2 h): 14%
- % linker-glucose ([1]; 5000 equiv glucose, 2.5 h): 18%
- % linker-glucose ([1]; 5000 equiv glucose, 7 h): 49%

Compound: COc1ccc(C(=O)N/N=C/COCc2ccccc2)cc1 [Linker 14, (E)-N′-(2-(benzyloxy)ethylidene)-4-methoxybenzohydrazide]
- % linker-glucose ([1]; 1000 equiv glucose, 0 h): 0%
- % linker-glucose ([1]; 1000 equiv glucose, 24 h): 7%
- % linker-glucose ([1]; 1000 equiv glucose, 54 h): 11%
- % linker-glucose ([1]; 1000 equiv glucose, 72 h): 17%
- % linker-glucose ([1]; 5000 equiv glucose, 0 h): 0%
- % linker-glucose ([1]; 5000 equiv glucose, 24 h): 16%
- % linker-glucose ([1]; 5000 equiv glucose, 54 h): 30%
- % linker-glucose ([1]; 5000 equiv glucose, 72 h): 50%
- % linker-glucose ([1]; 10,000 equiv glucose, 0 h): 0%
- % linker-glucose ([1]; 10,000 equiv glucose, 6 h): 3%
- % linker-glucose ([1]; 10,000 equiv glucose, 24 h): 39%
- % linker-glucose ([1]; 10,000 equiv glucose, 54 h): 62%
- % linker-glucose ([1]; 10,000 equiv glucose, 72 h): 87%

Compound: COc1ccc(C(=O)N/N=C/COCc2ccccc2)c(O)c1 [Linker 15, (E)-N′-(2-(benzyloxy)ethylidene)-2-hydroxy-4-methoxybenzohydrazide]
- Linker-glucose observed [2]: ≤ 5 h
- % linker-glucose ([1]; 1000 equiv glucose, 0 h): 0%
- % linker-glucose ([1]; 1000 equiv glucose, 2 h): 1%
- % linker-glucose ([1]; 1000 equiv glucose, 4 h): 3%
- % linker-glucose ([1]; 1000 equiv glucose, 6 h): 5%
- % linker-glucose ([1]; 1000 equiv glucose, 24 h): 21%
- % linker-glucose ([1]; 1000 equiv glucose, 48 h): 35%
- % linker-glucose ([1]; 5000 equiv glucose, 0 h): 0%
- % linker-glucose ([1]; 5000 equiv glucose, 1 h): 2%
- % linker-glucose ([1]; 5000 equiv glucose, 2 h): 6%
- % linker-glucose ([1]; 5000 equiv glucose, 4 h): 12%
- % linker-glucose ([1]; 5000 equiv glucose, 6 h): 21%
- % linker-glucose ([1]; 5000 equiv glucose, 24 h): 68%
- % linker-glucose ([1]; 5000 equiv glucose, 48 h): 98%
- % linker-glucose ([1]; 10,000 equiv glucose, 0 h): 0%
- % linker-glucose ([1]; 10,000 equiv glucose, 1 h): 9%
- % linker-glucose ([1]; 10,000 equiv glucose, 2 h): 15%
- % linker-glucose ([1]; 10,000 equiv glucose, 4 h): 33%
- % linker-glucose ([1]; 10,000 equiv glucose, 6 h): 44%
- % linker-glucose ([1]; 10,000 equiv glucose, 24 h): 89%
- % linker-glucose ([1]; 10,000 equiv glucose, 48 h): 99%

Compound: Human insulin: human insulin, the unmodified peptide hormone used as comparator
- Blood glucose % of vehicle (±SEM) (lean rats; 0 min (before)): 95 ± 3%
- Blood glucose % of vehicle (±SEM) (lean rats; 60 min): 64 ± 4%
- Blood glucose % of vehicle (±SEM) (lean rats; 120 min): 55 ± 6%
- Blood glucose % of vehicle (±SEM) (lean rats; 180 min): 66 ± 7%
- Blood glucose % of vehicle (±SEM) (lean rats; 240 min): 76 ± 4%
- Blood glucose % of vehicle (±SEM) (lean rats; 300 min): 76 ± 4%
